Paper PMC3961306, “Comparison of the Cancer Gene Targeting and Biochemical Selectivities of All Targeted Kinase Inhibitors Approved for Clinical Use” (PLoS ONE, 2014)

Columns and labels:
Experiment in all cases: Kinase profiling in a biochemical assay panel (mobility shift assays and ELISA), %-inhibition at 1 μM; selectivity entropy
[1] = target: panel of more than 300 wild-type and mutant kinases (313 kinase panel) (Homo sapiens, UniProt Q00526)
[2] = target: panel of more than 300 wild-type and mutant kinases (313 kinase panel) (Homo sapiens, UniProt P07949, Y791F)
Sequence of panel of more than 300 wild-type and mutant kinases (313 kinase panel) (Homo sapiens, UniProt P07949, Y791F) (P07949 29-1114 Y791F): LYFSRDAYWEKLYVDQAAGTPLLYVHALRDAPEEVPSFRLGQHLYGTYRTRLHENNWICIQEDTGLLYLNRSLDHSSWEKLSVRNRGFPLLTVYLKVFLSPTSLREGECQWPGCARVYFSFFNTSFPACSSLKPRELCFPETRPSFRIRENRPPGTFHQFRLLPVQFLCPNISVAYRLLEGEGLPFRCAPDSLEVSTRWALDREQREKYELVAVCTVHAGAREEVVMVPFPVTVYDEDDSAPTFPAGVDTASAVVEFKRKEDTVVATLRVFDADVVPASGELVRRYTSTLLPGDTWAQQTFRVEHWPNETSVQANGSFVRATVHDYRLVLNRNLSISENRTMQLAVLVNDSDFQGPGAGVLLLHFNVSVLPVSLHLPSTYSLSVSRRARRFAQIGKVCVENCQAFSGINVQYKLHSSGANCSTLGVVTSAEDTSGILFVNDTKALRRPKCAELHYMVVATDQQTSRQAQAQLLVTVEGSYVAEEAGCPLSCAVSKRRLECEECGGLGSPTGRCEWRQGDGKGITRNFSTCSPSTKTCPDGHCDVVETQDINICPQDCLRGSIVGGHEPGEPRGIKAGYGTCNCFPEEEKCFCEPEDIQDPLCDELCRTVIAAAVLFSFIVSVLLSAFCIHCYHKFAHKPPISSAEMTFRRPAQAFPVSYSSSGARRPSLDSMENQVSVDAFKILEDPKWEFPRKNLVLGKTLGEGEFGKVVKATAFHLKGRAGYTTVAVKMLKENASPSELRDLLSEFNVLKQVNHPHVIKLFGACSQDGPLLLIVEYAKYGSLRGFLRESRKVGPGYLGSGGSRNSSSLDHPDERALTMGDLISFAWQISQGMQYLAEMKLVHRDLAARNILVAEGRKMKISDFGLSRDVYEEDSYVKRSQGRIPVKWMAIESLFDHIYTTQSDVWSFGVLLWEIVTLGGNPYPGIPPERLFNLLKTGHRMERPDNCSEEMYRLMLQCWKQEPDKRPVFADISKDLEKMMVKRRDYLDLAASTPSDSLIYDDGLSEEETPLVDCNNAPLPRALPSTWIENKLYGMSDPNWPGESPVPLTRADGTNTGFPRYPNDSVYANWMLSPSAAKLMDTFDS

[3] = target: panel of more than 300 wild-type and mutant kinases (313 kinase panel) (Homo sapiens, UniProt P57059); details: kinase SIK; 1 μM
[4] = target: panel of more than 300 wild-type and mutant kinases (313 kinase panel) (Homo sapiens, UniProt P10721, V654A); details: kinase KIT(V654A); compound at 1 μM
Sequence of panel of more than 300 wild-type and mutant kinases (313 kinase panel) (Homo sapiens, UniProt P10721, V654A) (P10721 26-976 V654A): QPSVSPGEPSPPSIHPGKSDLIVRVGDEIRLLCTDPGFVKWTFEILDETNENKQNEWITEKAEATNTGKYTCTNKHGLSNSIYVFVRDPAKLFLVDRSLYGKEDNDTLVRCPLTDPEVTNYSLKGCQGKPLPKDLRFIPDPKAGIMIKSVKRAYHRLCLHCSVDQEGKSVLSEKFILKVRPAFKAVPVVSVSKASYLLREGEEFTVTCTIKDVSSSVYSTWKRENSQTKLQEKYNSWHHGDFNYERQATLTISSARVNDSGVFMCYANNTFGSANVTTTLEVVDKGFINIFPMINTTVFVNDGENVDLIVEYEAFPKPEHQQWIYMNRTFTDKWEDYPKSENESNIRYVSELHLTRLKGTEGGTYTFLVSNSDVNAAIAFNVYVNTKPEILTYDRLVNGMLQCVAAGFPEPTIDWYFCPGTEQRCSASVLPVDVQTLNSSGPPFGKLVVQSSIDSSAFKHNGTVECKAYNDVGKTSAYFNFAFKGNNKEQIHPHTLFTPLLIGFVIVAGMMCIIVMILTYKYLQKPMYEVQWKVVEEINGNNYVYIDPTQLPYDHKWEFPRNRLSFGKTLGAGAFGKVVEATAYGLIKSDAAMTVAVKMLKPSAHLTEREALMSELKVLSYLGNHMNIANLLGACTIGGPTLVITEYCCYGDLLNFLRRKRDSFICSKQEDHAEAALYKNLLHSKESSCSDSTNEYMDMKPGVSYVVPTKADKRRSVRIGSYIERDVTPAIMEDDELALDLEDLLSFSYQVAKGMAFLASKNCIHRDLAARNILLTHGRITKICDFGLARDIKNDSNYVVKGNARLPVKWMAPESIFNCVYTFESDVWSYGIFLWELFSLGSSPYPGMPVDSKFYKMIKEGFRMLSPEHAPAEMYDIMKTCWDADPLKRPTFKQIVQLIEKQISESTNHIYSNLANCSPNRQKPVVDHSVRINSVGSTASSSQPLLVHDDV

[5] = target: panel of more than 300 wild-type and mutant kinases (313 kinase panel) (Homo sapiens, UniProt P36507)
[6] = target: panel of more than 300 wild-type and mutant kinases (313 kinase panel) (Homo sapiens, UniProt P04049)
Sequence of panel of more than 300 wild-type and mutant kinases (313 kinase panel) (Homo sapiens, UniProt P04049) (P04049 whole entry, change not shown): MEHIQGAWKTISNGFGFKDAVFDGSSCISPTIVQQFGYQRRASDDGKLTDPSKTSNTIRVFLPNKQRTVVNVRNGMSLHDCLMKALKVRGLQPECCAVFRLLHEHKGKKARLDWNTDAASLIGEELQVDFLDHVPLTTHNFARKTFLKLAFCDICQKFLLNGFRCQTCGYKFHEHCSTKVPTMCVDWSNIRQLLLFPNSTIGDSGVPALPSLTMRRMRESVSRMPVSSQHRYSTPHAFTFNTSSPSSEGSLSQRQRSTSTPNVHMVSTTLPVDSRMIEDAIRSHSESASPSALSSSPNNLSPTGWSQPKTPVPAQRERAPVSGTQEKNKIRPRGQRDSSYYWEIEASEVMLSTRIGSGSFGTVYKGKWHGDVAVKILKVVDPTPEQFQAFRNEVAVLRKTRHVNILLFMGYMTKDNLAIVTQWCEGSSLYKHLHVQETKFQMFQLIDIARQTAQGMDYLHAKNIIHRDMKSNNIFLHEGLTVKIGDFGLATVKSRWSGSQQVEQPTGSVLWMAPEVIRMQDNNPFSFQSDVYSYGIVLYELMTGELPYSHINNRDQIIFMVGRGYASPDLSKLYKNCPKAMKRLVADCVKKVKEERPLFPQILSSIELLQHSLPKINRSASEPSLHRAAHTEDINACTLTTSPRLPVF

[7] = target: T1, panel of more than 300 wild-type and mutant kinases (313 kinase panel) (Homo sapiens, UniProt O00418); details: kinase EEF2K; compound at 1 μM
T1 sequence (O00418 1-725): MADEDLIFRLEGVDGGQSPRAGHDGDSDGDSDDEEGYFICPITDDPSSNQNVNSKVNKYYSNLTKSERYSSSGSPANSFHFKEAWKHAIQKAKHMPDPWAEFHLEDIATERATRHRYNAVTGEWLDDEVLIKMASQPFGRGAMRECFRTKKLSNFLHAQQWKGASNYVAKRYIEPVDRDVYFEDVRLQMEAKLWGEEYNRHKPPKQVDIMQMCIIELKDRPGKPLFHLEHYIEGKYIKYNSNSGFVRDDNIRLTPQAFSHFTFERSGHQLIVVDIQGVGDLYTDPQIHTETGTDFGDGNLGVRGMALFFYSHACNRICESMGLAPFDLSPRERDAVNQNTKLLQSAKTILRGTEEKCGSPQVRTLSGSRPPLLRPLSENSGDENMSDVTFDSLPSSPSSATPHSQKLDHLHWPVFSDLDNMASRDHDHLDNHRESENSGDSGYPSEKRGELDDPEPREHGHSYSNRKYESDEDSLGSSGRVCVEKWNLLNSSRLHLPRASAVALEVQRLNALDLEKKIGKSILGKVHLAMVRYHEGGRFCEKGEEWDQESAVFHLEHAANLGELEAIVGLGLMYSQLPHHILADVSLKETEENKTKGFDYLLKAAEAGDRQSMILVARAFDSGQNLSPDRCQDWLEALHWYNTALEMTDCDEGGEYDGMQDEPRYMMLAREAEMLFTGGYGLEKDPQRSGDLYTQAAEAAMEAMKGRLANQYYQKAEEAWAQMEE

[8] = target: panel of more than 300 wild-type and mutant kinases (313 kinase panel) (Homo sapiens, UniProt Q9P0L2)
Sequence of panel of more than 300 wild-type and mutant kinases (313 kinase panel) (Homo sapiens, UniProt Q9P0L2) (Q9P0L2 whole entry, change not shown): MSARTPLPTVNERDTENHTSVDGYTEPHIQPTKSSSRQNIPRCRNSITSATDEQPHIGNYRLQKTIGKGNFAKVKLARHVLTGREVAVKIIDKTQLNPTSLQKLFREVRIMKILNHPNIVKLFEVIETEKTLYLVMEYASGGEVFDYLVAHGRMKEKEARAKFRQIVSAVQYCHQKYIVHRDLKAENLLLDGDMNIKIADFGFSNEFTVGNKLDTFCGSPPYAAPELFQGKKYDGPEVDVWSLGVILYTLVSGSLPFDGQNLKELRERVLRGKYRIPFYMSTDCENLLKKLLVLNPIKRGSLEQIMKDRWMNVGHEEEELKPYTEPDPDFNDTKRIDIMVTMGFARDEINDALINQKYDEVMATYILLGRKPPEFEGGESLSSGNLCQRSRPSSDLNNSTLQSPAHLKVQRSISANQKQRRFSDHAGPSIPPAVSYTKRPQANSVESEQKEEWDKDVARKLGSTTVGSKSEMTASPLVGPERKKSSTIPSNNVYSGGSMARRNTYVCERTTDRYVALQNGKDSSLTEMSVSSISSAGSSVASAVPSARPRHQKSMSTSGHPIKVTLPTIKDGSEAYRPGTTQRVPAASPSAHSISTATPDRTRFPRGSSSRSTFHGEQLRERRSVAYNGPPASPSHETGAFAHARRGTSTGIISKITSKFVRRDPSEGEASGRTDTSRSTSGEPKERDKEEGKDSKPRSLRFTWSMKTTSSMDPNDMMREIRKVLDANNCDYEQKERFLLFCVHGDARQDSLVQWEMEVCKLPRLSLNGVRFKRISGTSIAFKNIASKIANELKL

[9] = target: T2, panel of more than 300 wild-type and mutant kinases (313 kinase panel) (Homo sapiens, UniProt Q13043)
T2 sequence (Q13043 1-487): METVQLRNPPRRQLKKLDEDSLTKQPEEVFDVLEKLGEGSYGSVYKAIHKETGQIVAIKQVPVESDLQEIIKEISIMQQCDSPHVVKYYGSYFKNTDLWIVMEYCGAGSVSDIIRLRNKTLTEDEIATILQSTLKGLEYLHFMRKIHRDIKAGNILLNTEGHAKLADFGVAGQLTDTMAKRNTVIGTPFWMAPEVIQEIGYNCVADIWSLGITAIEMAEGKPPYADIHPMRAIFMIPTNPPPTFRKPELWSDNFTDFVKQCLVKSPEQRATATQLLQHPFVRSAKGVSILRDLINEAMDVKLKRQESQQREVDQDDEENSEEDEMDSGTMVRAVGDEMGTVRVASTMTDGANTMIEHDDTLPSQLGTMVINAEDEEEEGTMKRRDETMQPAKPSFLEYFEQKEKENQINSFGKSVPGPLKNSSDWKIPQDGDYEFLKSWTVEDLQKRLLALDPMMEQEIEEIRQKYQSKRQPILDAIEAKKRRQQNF

[10] = target: T3, panel of more than 300 wild-type and mutant kinases (313 kinase panel) (Homo sapiens, UniProt Q8NE63)
T3 sequence (Q8NE63 1-616): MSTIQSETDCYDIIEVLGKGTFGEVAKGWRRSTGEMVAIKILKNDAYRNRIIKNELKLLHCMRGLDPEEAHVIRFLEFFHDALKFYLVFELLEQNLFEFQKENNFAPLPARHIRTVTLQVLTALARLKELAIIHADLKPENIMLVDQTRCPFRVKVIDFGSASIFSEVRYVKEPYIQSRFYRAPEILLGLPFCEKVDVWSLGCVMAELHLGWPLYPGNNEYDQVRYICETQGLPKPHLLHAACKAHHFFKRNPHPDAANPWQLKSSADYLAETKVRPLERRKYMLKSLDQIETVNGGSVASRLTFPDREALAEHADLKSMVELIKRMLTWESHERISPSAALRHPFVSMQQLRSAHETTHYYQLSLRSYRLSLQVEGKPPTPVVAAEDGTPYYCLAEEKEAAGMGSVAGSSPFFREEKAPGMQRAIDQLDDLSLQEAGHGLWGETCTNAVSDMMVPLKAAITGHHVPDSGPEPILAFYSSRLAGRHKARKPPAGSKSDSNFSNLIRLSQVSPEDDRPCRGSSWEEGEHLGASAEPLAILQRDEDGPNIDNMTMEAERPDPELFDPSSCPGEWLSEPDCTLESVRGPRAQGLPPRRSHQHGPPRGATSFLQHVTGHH

[11] = kinase CDK3/CycE1, 1 μM compound
[12] = kinase MAP2K2, compound at 1 μM

Sequence of panel of more than 300 wild-type and mutant kinases (313 kinase panel) (Homo sapiens, UniProt Q00526) (Q00526 whole entry, stated change not applied): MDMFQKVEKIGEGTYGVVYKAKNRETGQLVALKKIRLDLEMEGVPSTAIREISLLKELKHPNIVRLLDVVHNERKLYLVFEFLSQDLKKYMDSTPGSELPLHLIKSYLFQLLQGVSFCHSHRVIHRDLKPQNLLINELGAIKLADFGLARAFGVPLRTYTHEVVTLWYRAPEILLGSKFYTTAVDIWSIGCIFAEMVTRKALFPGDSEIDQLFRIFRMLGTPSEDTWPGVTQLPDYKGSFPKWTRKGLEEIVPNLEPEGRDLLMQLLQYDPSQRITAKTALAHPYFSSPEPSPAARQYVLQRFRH

In the case of `COc1cc(Nc2c(C#N)cnc3cc(OCCCN4CCN(C)CC4)c(OC)cc23)c(Cl)cc1Cl` [bosutinib], the “%-inhibition, CDK3/CycE1” value ([1]; 1 µM) is reported as 1%, the “%-inhibition of RET(Y791F)” value ([2]; kinase RET(Y791F), 1 μM) is reported as 93% and the “%-inhibition of SIK” value [3] is reported as 100%. For the same compound, the “%-inhibition of KIT(V654A)” value [4] was 8%, the “%-inhibition of MAP2K2” value ([5]; 1 µM) was 96% and the “%-inhibition of RAF1” value ([6]; kinase RAF1, 1 μM) was -3%. The “%-inhibition of EEF2K” value [7] was -7% and the “%-inhibition of MARK1” value ([8]; 1 µM) was 31%.
`COc1cc2nccc(Oc3ccc(NC(=O)C4(C(=O)Nc5ccc(F)cc5)CC4)cc3)c2cc1OC` [cabozantinib] was tested, and the “%-inhibition, CDK3/CycE1” value [1, 11] was -2.84%, the “%-inhibition of MST1” value ([9]; kinase MST1, 1 μM) was 6% and the “%-inhibition of SIK” value [3] was 6%. For the same compound, the “%-inhibition of KIT(V654A)” value [4] was 97%, the “%-inhibition of MAP2K2” value [5, 12] was 61% and the “%-inhibition of RAF1” value ([6]; kinase RAF1, 1 μM) was 48%. For the same compound, the “%-inhibition of EEF2K” value [7] was -4.74% and the “%-inhibition of MARK1” value ([8]; kinase MARK1, compound at 1 μM) was -1%.
For `C[C@@H](Oc1cc(-c2cnn(C3CCNCC3)c2)cnc1N)c1c(Cl)ccc(F)c1Cl` [crizotinib], the “%-inhibition, CDK3/CycE1” value [1, 11] was -5.68%, the “%-inhibition of MST1” value ([9]; kinase MST1, 1 μM) was 83% and the “%-inhibition of SIK” value [3] was 26%. The “%-inhibition of KIT(V654A)” value [4] was -3.75%, the “%-inhibition of MAP2K2” value [5, 12] was 13% and the “%-inhibition of RAF1” value ([6]; kinase RAF1, 1 μM) was 11%. For the same compound, the “%-inhibition of EEF2K” value [7] was -4.6%, the “%-inhibition of MARK1” value ([8]; kinase MARK1, compound at 1 μM) was 27% and the “%-inhibition of HIPK4” value ([10]; kinase HIPK4, compound at 1 μM) was 31%.
With `CC(C)(C)c1nc(-c2cccc(NS(=O)(=O)c3c(F)cccc3F)c2F)c(-c2ccnc(N)n2)s1` [dabrafenib] the “%-inhibition of RET(Y791F)” value ([2]; kinase RET(Y791F), 1 μM) was 36%, the “%-inhibition of SIK” value [3] was 100% and the “%-inhibition of KIT(V654A)” value [4] was -3.17%. For the same compound, the “%-inhibition of RAF1” value ([6]; kinase RAF1, 1 μM) was 99%, the “%-inhibition of MARK1” value ([8]; kinase MARK1, compound at 1 μM) was -15% and the “%-inhibition of HIPK4” value ([10]; kinase HIPK4, compound at 1 μM) was 92%.
For `Cc1nc(Nc2ncc(C(=O)Nc3c(C)cccc3Cl)s2)cc(N2CCN(CCO)CC2)n1` [dasatinib], the “%-inhibition, CDK3/CycE1” value [1, 11] was 2.27%.
In the case of `CS(=O)(=O)CCNCc1ccc(-c2ccc3ncnc(Nc4ccc(OCc5cccc(F)c5)c(Cl)c4)c3c2)o1` [lapatinib], the “%-inhibition, CDK3/CycE1” value [1, 11] is reported as 2.84%, the “%-inhibition of RET(Y791F)” value ([2]; 1 µM) is reported as -5% and the “%-inhibition of MST1” value ([9]; 1 µM) is reported as -5.59%. For the same compound, the “%-inhibition of SIK” value [3] was -7%, the “%-inhibition of MAP2K2” value [5, 12] was 6% and the “%-inhibition of RAF1” value ([6]; kinase RAF1, 1 μM) was 8%. For the same compound, the “%-inhibition of EEF2K” value [7] was -2.58%, the “%-inhibition of MARK1” value ([8]; 1 µM) was 9% and the “%-inhibition of HIPK4” value ([10]; kinase HIPK4, compound at 1 μM) was 9%.
In the case of `Cc1ccc(C(=O)Nc2ccc(CN3CCN(C)CC3)c(C(F)(F)F)c2)cc1C#Cc1cnc2cccnn12` [ponatinib], the “%-inhibition, CDK3/CycE1” value [1, 11] is reported as 20%, the “%-inhibition of RET(Y791F)” value ([2]; kinase RET(Y791F), 1 μM) is reported as 102% and the “%-inhibition of SIK” value [3] is reported as 96%. The “%-inhibition of RAF1” value ([6]; kinase RAF1, 1 μM) was 96%, the “%-inhibition of EEF2K” value [7] was -4% and the “%-inhibition of HIPK4” value ([10]; kinase HIPK4, compound at 1 μM) was 96%.
For `CNC(=O)c1cc(Oc2ccc(NC(=O)Nc3ccc(Cl)c(C(F)(F)F)c3)c(F)c2)ccn1` [regorafenib], the “%-inhibition, CDK3/CycE1” value [1, 11] was -1.17%, the “%-inhibition of RET(Y791F)” value ([2]; 1 µM) was 102% and the “%-inhibition of MST1” value ([9]; kinase MST1, 1 μM) was -5.39%. For the same compound, the “%-inhibition of SIK” value [3] was 0.674%, the “%-inhibition of MAP2K2” value [5, 12] was 16% and the “%-inhibition of RAF1” value ([6]; kinase RAF1, 1 μM) was 96%. For the same compound, the “%-inhibition of EEF2K” value [7] was -11%, the “%-inhibition of MARK1” value ([8]; kinase MARK1, compound at 1 μM) was -24% and the “%-inhibition of HIPK4” value ([10]; kinase HIPK4, compound at 1 μM) was 100%.
`N#CC[C@H](C1CCCC1)n1cc(-c2ncnc3[nH]ccc23)cn1` [ruxolitinib] was tested, and the “%-inhibition, CDK3/CycE1” value [1, 11] was -9.52%, the “%-inhibition of MST1” value ([9]; kinase MST1, 1 μM) was 12% and the “%-inhibition of SIK” value [3] was 22%. The “%-inhibition of KIT(V654A)” value [4] was -10%, the “%-inhibition of MAP2K2” value [5, 12] was 12% and the “%-inhibition of RAF1” value ([6]; 1 µM) was 9%. For the same compound, the “%-inhibition of EEF2K” value [7] was -6% and the “%-inhibition of HIPK4” value ([10]; 1 µM) was 3%.
With `CC(=O)Nc1cccc(-n2c(=O)n(C3CC3)c(=O)c3c(Nc4ccc(I)cc4F)n(C)c(=O)c(C)c32)c1` [trametinib] the “%-inhibition, CDK3/CycE1” value [1, 11] was 0.16%, the “%-inhibition of RET(Y791F)” value ([2]; kinase RET(Y791F), 1 μM) was -1.71% and the “%-inhibition of MST1” value ([9]; kinase MST1, 1 μM) was -3.74%. The “%-inhibition of SIK” value [3] was -3%, the “%-inhibition of KIT(V654A)” value [4] was -1.62% and the “%-inhibition of RAF1” value ([6]; kinase RAF1, 1 μM) was 61%. For the same compound, the “%-inhibition of EEF2K” value [7] was -3.43%, the “%-inhibition of MARK1” value ([8]; kinase MARK1, compound at 1 μM) was -17% and the “%-inhibition of HIPK4” value ([10]; kinase HIPK4, compound at 1 μM) was 2.78%.
For `COc1cc2c(Nc3ccc(Br)cc3F)ncnc2cc1OCC1CCN(C)CC1` [vandetanib], the “%-inhibition, CDK3/CycE1” value [1, 11] was -13%, the “%-inhibition of MST1” value ([9]; kinase MST1, 1 μM) was 3.16% and the “%-inhibition of SIK” value [3] was 70%. The “%-inhibition of RAF1” value ([6]; kinase RAF1, 1 μM) was 41%, the “%-inhibition of EEF2K” value [7] was -10% and the “%-inhibition of MARK1” value ([8]; kinase MARK1, compound at 1 μM) was -14%. The “%-inhibition of HIPK4” value ([10]; kinase HIPK4, compound at 1 μM) was 20%.
